Laboratory results published in patent publication US20130023585A1, “Neuraminidase Inhibitors” (TSRL, INC., priority 2010, published 2013).

System: Hong Kong/2369/2009 (H1N1) H275Y oseltamivir resistant
Assay type: cell-based, influenza virus

## CCC(CC)O[C@@H]1C=C(C(=O)O)C[C@H](NC(=N)N)[C@H]1NC(C)=O [GOC, 4-guanidinio oseltamivir carboxylate]
  activity against the Oseltamivir resistant strain: remains active
read-out: 50% effective concentration (EC50)
  EC50: 1700 nM
